PMC12051620, “Molecular basis underlying the specificity of an antagonist AA92593 for mammalian melanopsins” (The Journal of Biological Chemistry, 2025)

Legend:
[1] = dissolution in HBSS assay solution; type: physicochemical; conditions: HBSS solution pH 7.4, 0.5% DMSO
Experimental: The transfected COS-1 cells were incubated at 37 °C, 5% CO2 for 2 days, and the medium was aspirated and exchanged with 50 μl of HBSS (145 mM NaCl, 10 mM D-glucose, 5 mM KCl, 1 mM MgCl2, 1.7 mM CaCl2, 1.5 mM NaHCO3, 10 mM Hepes, pH 7.4), containing 33.3, 20, 10, 2, 0.2, 0.02, 0.002, or 0 μM AA92593, 0.5% dimetyl sulfoxide (DMSO), and 4% (vol/vol) GloSensor cAMP reagent stock solution. Under our experimental conditions, >50 μM AA92593 was not fully dissolved in the HBSS solution, and we set maximal concentration of AA92593 (Glixx Laboratories) at 33.3 μM (final concentration of 16.7 μM, see below). Then, the cells were incubated at room temperature for 1 h, and luminescence changes were monitored. After incubation of the cells with AA92593, luminescence measurement was interrupted, the plate was ejected, and the cells were added with 50 μl of HBSS containing 0.2 μM 9-cis-retinal. […] Luminescence was measured using GM-2000 or GM-3510 microplate reader (Promega). Luminescence level of each well was measured every 30 s with integration time of 0.6 to 0.9 s. To illuminate opsins, luminescence measurement was interrupted, the plate was ejected, and the plate was illuminated by white light with CN-160 LED video light (light intensity, ∼9 mW/cm^2) (NEEWER). […] After illumination, luminescence measurement was resumed. […]

[2] = target: T1, mouse melanopsin (Mus musculus, UniProt Q9QXZ9); assay: GsX GloSensor assay with Gsα/i11; type: cell-based; conditions: 16.7 μM AA92593; COS-1 cells
T1 construct: the C-terminal amino acid residues (94, 140, 200, 214, 296, and 308 residues); expressed in transfected cells; host or cells: COS-1
T1 sequence (Q9QXZ9 1-381 limits assumed): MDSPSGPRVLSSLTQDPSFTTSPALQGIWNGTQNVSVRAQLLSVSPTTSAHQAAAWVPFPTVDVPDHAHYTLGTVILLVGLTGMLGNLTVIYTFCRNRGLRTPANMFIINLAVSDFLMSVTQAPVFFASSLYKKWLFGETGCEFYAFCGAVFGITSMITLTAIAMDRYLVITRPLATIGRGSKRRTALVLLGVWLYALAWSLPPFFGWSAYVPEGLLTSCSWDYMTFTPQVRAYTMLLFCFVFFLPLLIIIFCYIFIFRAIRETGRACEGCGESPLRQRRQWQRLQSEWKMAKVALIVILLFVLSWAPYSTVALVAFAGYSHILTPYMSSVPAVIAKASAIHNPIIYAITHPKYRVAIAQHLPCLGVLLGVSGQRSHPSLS
Text: Previous studies of human and mouse melanopsins reported that these melanopsins can activate not only Gq but Gs and Gi ([20], [21], [22]). Thus, we assessed the effect of AA92593 on Gsα WT or Gsα/i11 (with 11 C-terminal sequence of Giα) using the GsX GloSensor assay. In agreement with the promiscuous G protein-coupling of melanopsins, we observed light-dependent increase of GloSensor luminescence in COS-1 cells expressing Gsα or Gsα/i11 with human/mouse melanopsins (Fig. 1, G–J).
For GloSensor assay, opsins, GloSensor assay sensor (coded by pGlo-22F), and NanoBiT-tagged G proteins were transiently expressed in COS-1 cells (kindly provided from Dr David Farrens, Oregon Health and Science University) using PEI as described previously ([24], [52]). […] For GFP-fluorescence microscopy, a 35-mm cell culture dish (IWAKI) was transfected with 2 μg melanopsin-GFP plasmid and 8 μg PEI in 400 μl Opti-mem and 1.2 ml D-MEM. […]
The transfected COS-1 cells were incubated at 37 °C, 5% CO2 for 2 days, and the medium was aspirated and exchanged with 50 μl of HBSS (145 mM NaCl, 10 mM D-glucose, 5 mM KCl, 1 mM MgCl2, 1.7 mM CaCl2, 1.5 mM NaHCO3, 10 mM Hepes, pH 7.4), containing 33.3, 20, 10, 2, 0.2, 0.02, 0.002, or 0 μM AA92593, 0.5% dimetyl sulfoxide (DMSO), and 4% (vol/vol) GloSensor cAMP reagent stock solution. […] Luminescence was measured using GM-2000 or GM-3510 microplate reader (Promega). […]

SMILES: COc1ccc(S(=O)(=O)N2CCCCC2)cc1C [AA92593]
- concentration at which AA92593 was not fully dissolved [1]: > 50 µM
- effect on melanopsin-induced cAMP responses via Gsα/i11 [2]: can suppress
